How the values were obtained:
[1] = system: TNF-α production in murine peritoneal macrophages; assay: TNF-α production in LPS-stimulated macrophages, ELISA; assay type: cell-based, murine (C57BL/6 mice); conditions: Mus musculus, Peritoneal macrophage; pre-treated 12 h, LPS 1 μg/mL 18 h
Method: (§1) C57BL/6 mice were purchased from Orient Bio Co. (Sungnam, Kyung-Kido, Korea). TG-elicited peritoneal macrophages were harvested four days after intraperitoneal (i.p.) injection of 3 mL of TG [37]. Peritoneal lavage was performed using 8 mL of Hanks’ Balanced Salt Solution containing 10 U/mL heparin. The cells were distributed in Roswell Park Memorial Institute medium (RPMI) supplemented with 10% heat-inactivated FBS, in 6-well tissue culture plates (5 × 10^6 cells/mL). The level of PGE2, TNF-α or IL-1β present in each sample was determined using a commercially available kit from R & D Systems. The assay was performed according to the manufacturer’s instructions. Briefly, murine peritoneal macrophages were cultured in 24-well plates, pre-incubated for 12 h with different concentrations of compounds 1–3, and then stimulated for 18 h with LPS. The cell culture supernatants were then immediately collected after treatment and centrifuged at 13,000× g for 2 min to remove particulate matter. The medium was added to a 96-well plate pre-coated with affinity-purified PGE2-specific polyclonal antibodies or the medium was added to a 96-well plate pre-coated with affinity-purified polyclonal antibodies that were specific to mouse TNF-α or IL-1β. An enzyme-linked polyclonal antibody specific for PGE2, mouse TNF-α or IL-1β was added to the wells for 20 h, followed by a final wash to remove any unbound antibody-enzyme reagent. A substrate solution was added, and the intensity of the color produced, which was measured at 450 nm (the correction wavelength was set at 540 nm or 570 nm), was proportional to the amount of PGE2, TNF-α or IL-1β present.

[2] = system: COX-2-derived PGE2 production in murine peritoneal macrophages; assay: PGE2 production in LPS-stimulated macrophages, ELISA; assay type: cell-based, murine (C57BL/6 mice); conditions: Mus musculus, Peritoneal macrophage; pre-treated 12 h, LPS 1 μg/mL 18 h
Method: as §1

[3] = system: iNOS-derived NO production in murine peritoneal macrophages; assay: Nitrite (NO) production in LPS-stimulated macrophages, Griess reaction; assay type: cell-based, murine (C57BL/6 mice); conditions: Mus musculus, Peritoneal macrophage; pre-treated 12 h, LPS 1 μg/mL 18 h
Method: The expression of pro-inflammatory enzymes, including COX-2 and iNOS, plays an important role in immune-activated macrophages via the production of COX-2-derived PGE2 and iNOS-derived NO [20, 21]. To investigate the effects of compounds on iNOS-derived NO and COX-2-derived PGE2 production, and iNOS and COX-2 expression in LPS-stimulated macrophages, murine peritoneal macrophages were stimulated with LPS (1 μg/mL) for 18 h in the presence or absence of non-cytotoxic concentrations of compounds 1–3 (Figure S1). […] The finding that penstyrylpyrone (1) suppressed LPS-induced pro-inflammatory mediators, such as NO, PGE2, iNOS, and COX-2, led further investigation of the effects of penstyrylpyrone (1) on LPS-induced TNF-α and IL-1β production, which are other pro-inflammatory mediators.
C57BL/6 mice were purchased from Orient Bio Co. (Sungnam, Kyung-Kido, Korea). TG-elicited peritoneal macrophages were harvested four days after intraperitoneal (i.p.) injection of 3 mL of TG [37]. Peritoneal lavage was performed using 8 mL of Hanks’ Balanced Salt Solution containing 10 U/mL heparin. The cells were distributed in Roswell Park Memorial Institute medium (RPMI) supplemented with 10% heat-inactivated FBS, in 6-well tissue culture plates (5 × 10^6 cells/mL).
The production of nitrite, a stable end product of NO oxidation, was used as a measure of iNOS activity. The nitrite present in the conditioned medium was determined using a method based on the Griess reaction.

[4] = system: CD4; parameters: method as in doi:10.1351/pac199466102383; conditions: previously reported ref 43; cited from earlier work
[5] = target: T1, PTP1B (human, recombinant) (Homo sapiens, UniProt P18031); assay: PTP1B assay (pNPP hydrolysis); assay type: biochemical; conditions: for IC50: 2 mM pNPP, pH 6.0, 30 °C, 30 min, read-out: PTP1B inhibitory activity IC50
T1 construct: purchased BIOMOL Research Laboratories, Inc
T1 sequence (P18031 1-435): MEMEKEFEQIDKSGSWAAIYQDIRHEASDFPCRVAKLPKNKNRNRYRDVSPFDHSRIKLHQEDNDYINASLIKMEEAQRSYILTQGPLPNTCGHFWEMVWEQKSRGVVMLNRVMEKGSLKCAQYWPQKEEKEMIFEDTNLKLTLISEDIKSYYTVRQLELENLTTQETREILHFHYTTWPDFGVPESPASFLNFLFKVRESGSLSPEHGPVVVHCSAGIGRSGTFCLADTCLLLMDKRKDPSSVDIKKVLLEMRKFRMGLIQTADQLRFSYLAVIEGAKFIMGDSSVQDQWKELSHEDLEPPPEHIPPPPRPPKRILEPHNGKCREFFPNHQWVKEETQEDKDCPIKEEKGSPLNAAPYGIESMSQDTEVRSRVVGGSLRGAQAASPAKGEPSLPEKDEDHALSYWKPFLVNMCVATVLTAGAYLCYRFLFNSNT
Method: PTP1B (human, recombinant) was purchased from BIOMOL Research Laboratories, Inc. Enzyme activity was measured in a reaction mixture containing 2 mM p-nitrophenyl phosphate (pNPP) in 50 mM citrate, pH 6.0 (composition: 0.1 M NaCl, 1 mM EDTA, and 1 mM dithiothreitol (DTT)). The reaction mixture was placed in an incubator maintained at 30 °C for 30 min, and the reaction was terminated by the addition of 1 N NaOH. The amount of p-nitrophenol produced was estimated by measuring the increase in absorbance at 405 nm. The nonenzymatic hydrolysis of 2 mM pNPP was corrected by measuring the increase in absorbance at 405 nm in the absence of PTP1B enzyme. For the kinetic analysis, the reaction mixture consisted of different concentrations of pNPP as a PTP1B substrate in the absence or presence of compound 1, and assays were performed as described above. The Michaelis-Menten constant (Km) and maximum velocity (Vmax) of PTP1B were determined by the Lineweaver-Burk plot using a GraphPad Prism® 4 program (GraphPad Software Inc., San Diego, CA, USA).

[6] = system: IL-1β production in murine peritoneal macrophages; assay: IL-1β production in LPS-stimulated macrophages, ELISA; assay type: cell-based, murine (C57BL/6 mice); conditions: Mus musculus, Peritoneal macrophage; pre-treated 12 h, LPS 1 μg/mL 18 h
Method: as §1

Row | SMILES | IC50 [1] [µM] | IC50 [2] [µM] | IC50 [3] [µM] | CD4-binding activity [4] | IC50 [5] [µM] | Mode of PTP1B inhibition (Lineweaver-Burk, non-linear regression) ([5]; different concentrations of pNPP) | IC50 [6] [µM]
1 | CC1=Cc2oc3cc(O)c(O)c(C(=O)O)c3c(=O)c2CO1 [Anhydrofulvic acid (2), anhydrofulvic acid] | > 40 | > 40 | > 40 | weak | 1.9 | competitive | > 40
2 | Cc1cc(=O)c2c(o1)-c1c(cc(O)c(O)c1C(=O)O)OC2 [Citromycetin (3), citromycetin] | > 40 | > 40 | > 40 | weak | > 25.8 |  | > 40

— PMC3705412, “PTP1B Inhibitory and Anti-Inflammatory Effects of Secondary Metabolites Isolated from the Marine-Derived Fungus Penicillium sp. JF-55” (Marine Drugs, 2013)
